4 compounds from article PMC12300325, “Antimicrobial and Anti-Inflammatory Activity of N-(2-Bromo-phenyl)-2-hydroxy-benzamide Derivatives and Their Inclusion Complexes” (Pharmaceutics, 2025) can be followed below.

Read-outs that look alike come from different tables or passages of the source.

The test addresses trypsin (Sus scrofa, UniProt P00761). Put plainly: casein digestion protease inhibition assay, absorbance at […] nm. Type of test: biochemical.
Where [1] appears, read: read-out: IC50 (mg/mL) * (converted).

Sequence of trypsin (P00761 9-231): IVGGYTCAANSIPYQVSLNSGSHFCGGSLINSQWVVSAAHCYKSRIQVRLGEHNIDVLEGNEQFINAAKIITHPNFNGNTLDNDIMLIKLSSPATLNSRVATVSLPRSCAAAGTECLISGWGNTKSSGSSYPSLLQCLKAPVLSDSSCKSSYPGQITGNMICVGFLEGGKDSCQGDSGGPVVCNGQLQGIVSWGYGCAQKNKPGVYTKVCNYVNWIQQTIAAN

As for `NNC(=O)COc1ccccc1C(=O)Nc1ccccc1Br` [HD, N-(2-bromo-phenyl)-2-hydrazinocarbonylmethoxy-benzamide], the IC50 under setting [1] was 171 µM.

On to `CCOC(=O)COc1ccccc1C(=O)Nc1ccccc1Br` [EE, [2-(2-bromophenylcarbamoyl)phenoxy]acetic acid ethyl ester], for which the IC50 under setting [1] was 115 µM.

Take `CC(=O)Oc1ccccc1C(=O)O` [acetylsalicylic acid, reference compound]: the IC50 is 2250 µM.

In the case of `O=C(COc1ccccc1C(=O)Nc1ccccc1Br)NN=Cc1cc(Br)ccc1O` [HN, 2-(5-bromo-2-hydroxy-benzylidene-hydrazinocarbonylmethoxy)-N-(2-bromo-phenyl)-benzamide], the IC50 under setting [1] was 102 µM.
